Laboratory results: paper PMC11728000, “Antitumor Activity and Multi-Target Mechanism of Phenolic Schiff Bases Bearing Methanesulfonamide Fragments: Cell Cycle Analysis and a Molecular Modeling Study” (International Journal of Molecular Sciences, 2024)
Read-outs that look alike come from different tables or passages of the source.

Tests used:
OVCAR-8 = test system: OVCAR-8; design: method as in https://dtp.cancer.gov/dtpstandard/dwindex/index.jsp; settings: ref https://dtp.cancer.gov/dtpstandard/dwindex/index.jsp; cited from earlier work
[1] = test system: NSC Lung Cancer subpanel tumor cell lines; settings: cited from earlier work; for GI50: read-out: GI50, subpanel average, ref https://dtp.cancer.gov/dtpstandard/dwindex/index.jsp; for CC50: read-out: LC50, subpanel average, ref https://dtp.cancer.gov/dtpstandard/dwindex/index.jsp; for TGI, subpanel average: ref https://dtp.cancer.gov/dtpstandard/dwindex/index.jsp
OVCAR-5 = test system: OVCAR-5; design: method as in https://dtp.cancer.gov/dtpstandard/dwindex/index.jsp; settings: ref https://dtp.cancer.gov/dtpstandard/dwindex/index.jsp; cited from earlier work
SF-268 = test system: SF-268; design: method as in https://dtp.cancer.gov/dtpstandard/dwindex/index.jsp; settings: ref https://dtp.cancer.gov/dtpstandard/dwindex/index.jsp; cited from earlier work
KM12 = test system: KM12; design: method as in https://dtp.cancer.gov/dtpstandard/dwindex/index.jsp; settings: ref https://dtp.cancer.gov/dtpstandard/dwindex/index.jsp; cited from earlier work
EKVX = test system: EKVX; design: method as in https://dtp.cancer.gov/dtpstandard/dwindex/index.jsp; settings: ref https://dtp.cancer.gov/dtpstandard/dwindex/index.jsp; cited from earlier work
CAKI-1 = test system: CAKI-1; design: method as in https://dtp.cancer.gov/dtpstandard/dwindex/index.jsp; settings: ref https://dtp.cancer.gov/dtpstandard/dwindex/index.jsp; cited from earlier work
[2] = test system: Colon Cancer subpanel tumor cell lines; settings: cited from earlier work; for GI50: read-out: GI50, subpanel average, ref https://dtp.cancer.gov/dtpstandard/dwindex/index.jsp; for CC50: read-out: LC50, subpanel average, ref https://dtp.cancer.gov/dtpstandard/dwindex/index.jsp; for TGI, subpanel average: ref https://dtp.cancer.gov/dtpstandard/dwindex/index.jsp
HT29 = test system: HT29; design: method as in https://dtp.cancer.gov/dtpstandard/dwindex/index.jsp; settings: ref https://dtp.cancer.gov/dtpstandard/dwindex/index.jsp; cited from earlier work
SN12C = test system: SN12C; design: method as in https://dtp.cancer.gov/dtpstandard/dwindex/index.jsp; settings: ref https://dtp.cancer.gov/dtpstandard/dwindex/index.jsp; cited from earlier work
BT-549 = test system: BT-549; design: method as in https://dtp.cancer.gov/dtpstandard/dwindex/index.jsp; settings: ref https://dtp.cancer.gov/dtpstandard/dwindex/index.jsp; cited from earlier work
NCI-H23 = test system: NCI-H23; design: method as in https://dtp.cancer.gov/dtpstandard/dwindex/index.jsp; settings: ref https://dtp.cancer.gov/dtpstandard/dwindex/index.jsp; cited from earlier work
HCT-15 = test system: HCT-15; design: method as in https://dtp.cancer.gov/dtpstandard/dwindex/index.jsp; settings: ref https://dtp.cancer.gov/dtpstandard/dwindex/index.jsp; cited from earlier work
[3] = test system: Leukemia subpanel tumor cell lines; settings: cited from earlier work; for GI50: read-out: GI50, subpanel average, ref https://dtp.cancer.gov/dtpstandard/dwindex/index.jsp; for CC50: read-out: LC50, subpanel average, ref https://dtp.cancer.gov/dtpstandard/dwindex/index.jsp; for TGI, subpanel average: ref https://dtp.cancer.gov/dtpstandard/dwindex/index.jsp
T-47D = test system: T-47D; design: method as in https://dtp.cancer.gov/dtpstandard/dwindex/index.jsp; settings: ref https://dtp.cancer.gov/dtpstandard/dwindex/index.jsp; cited from earlier work
MDA-MB-231/ATCC = test system: MDA-MB-231/ATCC; design: method as in https://dtp.cancer.gov/dtpstandard/dwindex/index.jsp; settings: ref https://dtp.cancer.gov/dtpstandard/dwindex/index.jsp; cited from earlier work
786-0 = test system: 786-0; design: method as in https://dtp.cancer.gov/dtpstandard/dwindex/index.jsp; settings: ref https://dtp.cancer.gov/dtpstandard/dwindex/index.jsp; cited from earlier work
UACC-257 = test system: UACC-257; design: method as in https://dtp.cancer.gov/dtpstandard/dwindex/index.jsp; settings: ref https://dtp.cancer.gov/dtpstandard/dwindex/index.jsp; cited from earlier work
IGROV1 [4] = test system: IGROV1; design: method as in https://dtp.cancer.gov/dtpstandard/dwindex/index.jsp; settings: ref https://dtp.cancer.gov/dtpstandard/dwindex/index.jsp; cited from earlier work
UACC-62 = test system: UACC-62; design: method as in https://dtp.cancer.gov/dtpstandard/dwindex/index.jsp; settings: ref https://dtp.cancer.gov/dtpstandard/dwindex/index.jsp; cited from earlier work
[5] = test system: Prostate Cancer subpanel tumor cell lines; settings: cited from earlier work; for GI50: read-out: GI50, subpanel average, ref https://dtp.cancer.gov/dtpstandard/dwindex/index.jsp; for CC50: read-out: LC50, subpanel average, ref https://dtp.cancer.gov/dtpstandard/dwindex/index.jsp; for TGI, subpanel average: ref https://dtp.cancer.gov/dtpstandard/dwindex/index.jsp
COLO 205 = test system: COLO 205; design: method as in https://dtp.cancer.gov/dtpstandard/dwindex/index.jsp; settings: ref https://dtp.cancer.gov/dtpstandard/dwindex/index.jsp; cited from earlier work
HL-60(TB) = test system: HL-60(TB); design: method as in https://dtp.cancer.gov/dtpstandard/dwindex/index.jsp; settings: ref https://dtp.cancer.gov/dtpstandard/dwindex/index.jsp; cited from earlier work
HCC-2998 = test system: HCC-2998; design: method as in https://dtp.cancer.gov/dtpstandard/dwindex/index.jsp; settings: ref https://dtp.cancer.gov/dtpstandard/dwindex/index.jsp; cited from earlier work
U251 = test system: U251; design: method as in https://dtp.cancer.gov/dtpstandard/dwindex/index.jsp; settings: ref https://dtp.cancer.gov/dtpstandard/dwindex/index.jsp; cited from earlier work
SK-MEL-2 = assay: NCI anticancer screening (SRB), Melanoma subpanel; format: cell-based, human; settings: for GI%: 10.0 µM in one dose
SW-620 = assay: NCI anticancer screening (SRB), Colon Cancer subpanel; format: cell-based, human; settings: for GI%: 10.0 µM in one dose
IGROV1 [6] = assay: NCI anticancer screening (SRB), Ovarian Cancer subpanel; format: cell-based, human; settings: for GI%: 10.0 µM in one dose
NCI-H460 = assay: NCI anticancer screening (SRB), Non-Small Cell Lung Cancer subpanel; format: cell-based, human; settings: for GI%: 10.0 µM in one dose
HCT-116 = assay: NCI anticancer screening (SRB), Colon Cancer subpanel; format: cell-based, human; settings: for GI%: 10.0 µM in one dose
NCI-H522 = test system: NCI-H522; design: method as in https://dtp.cancer.gov/dtpstandard/dwindex/index.jsp; settings: ref https://dtp.cancer.gov/dtpstandard/dwindex/index.jsp; cited from earlier work
NCI-H226 = test system: NCI-H226; design: method as in https://dtp.cancer.gov/dtpstandard/dwindex/index.jsp; settings: ref https://dtp.cancer.gov/dtpstandard/dwindex/index.jsp; cited from earlier work
[7] = Homo sapiens, five concentrations

| Compound | TGI, subpanel average [1] [µM] | GI50 (OVCAR-5) [µM] | GI50 (SF-268) [µM] | GI50 [2] [µM] | TGI, subpanel average [2] | GI50 (HT29) [µM] | GI50 (SN12C) [µM] | GI50 (BT-549) [µM] | GI50 (NCI-H23) [µM] | GI50 (HCT-15) [µM] | GI50 [3] [µM] | TGI, subpanel average [3] [µM] | GI50 (MDA-MB-231/ATCC) [µM] | GI50 (786-0) [µM] | GI50 (UACC-257) [µM] | GI50 (IGROV1 [4]) [µM] | GI50 [5] [µM] | TGI, subpanel average [5] | GI50 (COLO 205) [µM] | GI50 (HCC-2998) [µM] | other results |
| --- | --- | --- | --- | --- | --- | --- | --- | --- | --- | --- | --- | --- | --- | --- | --- | --- | --- | --- | --- | --- | --- |
| Cc1ccc(-c2cc(C(F)(F)F)nn2-c2ccc(S(N)(=O)=O)cc2)cc1 [Celecoxib, celecoxib] | 41.93 | 19.9 | 15.8 | 20.7 | 41.39 µM | 15.8 | 15.8 | 19.9 | 15.8 | 15.8 | 12.3 | 29.27 | 15.8 | 39.8 | 19.9 | 15.8 | 14.2 | 28.37 µM | 15.8 | 15.8 | GI50 (OVCAR-8): 19.9 µM; GI50 [1]: 25.1 µM; CC50 [1]: 67.1 µM; GI50 (KM12): 15.8 µM; GI50 (EKVX): 19.9 µM; GI50 (CAKI-1): 19.9 µM; CC50 [2]: 66.5 µM; CC50 [3]: 67.1 µM; GI50 (T-47D): 15.8 µM; GI50 (UACC-62): 15.8 µM; CC50 [5]: 57 µM; GI50 (HL-60(TB)): 15.8 µM; GI50 (U251): 15.8 µM |
| CS(=O)(=O)Nc1ccc(C(=O)NN=Cc2ccccc2O)cc1 [Compound 7] | – | – | – | – | – | – | – | – | – | – | – | – | – | – | – | – | – | – | – | – | GI% (SK-MEL-2): 22%; GI% (SW-620): 35%; GI% (IGROV1 [6]): 25%; GI% (NCI-H460): 21%; GI% (HCT-116): 59% |
| CCN(CC)c1ccc(C=NNC(=O)c2ccc(NS(C)(=O)=O)cc2)c(O)c1 [Compound 8] | – | – | – | – | – | – | – | – | – | – | – | – | – | – | – | – | – | – | – | – | GI% (SK-MEL-2): 59%; GI50 (SK-MEL-2; [7]): 0.749 µM; GI% (SW-620): 63%; GI50 (SW-620; [7]): 0.471 µM; GI% (IGROV1 [6]): 80%; GI50 (IGROV1 [6]; Homo sapiens, IGROV-1, five concentrations): 0.544 µM; GI% (NCI-H460): 97%; GI50 (NCI-H460; [7]): 0.475 µM; GI% (HCT-116): 78%; GI50 (HCT-116; Homo sapiens): 0.263 µM |
| C#Cc1cccc(Nc2ncnc3cc(OCCOC)c(OCCOC)cc23)c1 [Erlotinib, erlotinib] | 73.76 | 7.94 | 15.8 | 51.7 | c (compounds showed values ≥ 100 μM) | 63.1 | 1.58 | 31.6 | 31.6 | 3.98 | 27.9 | 96.57 | 6.31 | 10 | 100 | 0.316 | 20.9 | c (compounds showed values ≥ 100 μM) | 50.1 | 79.4 | GI50 (OVCAR-8): 7.94 µM; GI50 [1]: 13.1 µM; CC50 [1]: 97.7 µM; GI50 (KM12): 79.4 µM; GI50 (EKVX): 0.199 µM; GI50 (CAKI-1): 0.199 µM; CC50 [2]: > 100 µM; CC50 [3]: > 100 µM; GI50 (T-47D): 3.98 µM; GI50 (NCI-H522): 1 µM; GI50 (UACC-62): 3.16 µM; CC50 [5]: > 100 µM; GI50 (HL-60(TB)): 25.1 µM; GI50 (NCI-H226): 39.8 µM; GI50 (U251): 25.1 µM |
| COc1cc2ncnc(Nc3ccc(F)c(Cl)c3)c2cc1OCCCN1CCOCC1 [Gefitinib, gefitinib] | 13.86 | 3.98 | 2.51 | 5.23 | 18.47 µM | 3.98 | 1.26 | 3.16 | 2.51 | 3.98 | 2.56 | 12.07 | 3.98 | 3.16 | 2.51 | 3.16 | 3.29 | 31.62 µM | 7.94 | 2.51 | GI50 [1]: 2.05 µM; GI50 (KM12): 10 µM; GI50 (T-47D): 7.94 µM; GI50 (NCI-H522): 1 µM; GI50 (UACC-62): 2 µM; GI50 (NCI-H226): 3.98 µM; GI50 (U251): 3.16 µM |
| CNC(=O)c1cc(Oc2ccc(NC(=O)Nc3ccc(Cl)c(C(F)(F)F)c3)cc2)ccn1 [Sorafenib, sorafenib] | 7.99 | 3.16 | 2.51 | 2.19 | 7.94 µM | 1.99 | 2.51 | 3.16 | 1.99 | 2.51 | 1.91 | 42.12 | 1.26 | 3.16 | 1.99 | 2.51 | 2.58 | 10.27 µM | 1.99 | 3.16 | GI50 (OVCAR-8): 3.16 µM; CC50 [1]: 49.1 µM; GI50 (EKVX): 2.51 µM; GI50 (CAKI-1): 3.16 µM; CC50 [2]: 38.1 µM; CC50 [3]: > 100 µM; GI50 (NCI-H522): 1.99 µM; CC50 [5]: 69.9 µM; GI50 (NCI-H226): 1.99 µM; GI50 (U251): 1.99 µM |
